Laboratory results published in patent US12643906B2, “Fused aza-heterocyclic amide compound and use thereof” (CSPC ZHONGQI PHARMACEUTICAL TECHNOLOGY (SHIJIAZHUANG) CO., …, priority 2020, dated 2026).
Where two headings read alike, the source gives them in different places.

Legend:
TRKC(G623R) = target: T1, TRKC(G623R) (Homo sapiens, UniProt Q16288, G623R); test: HTRF kinase inhibition assay, TRKC(G623R); type: biochemical
T1 construct: purchased Bioduro
Procedure: (§1) The compound to be tested with a certain concentration gradient and an enzyme solution were successively added into a plate (kinase buffer (1× kinase buffer (Cisbio, Cat #62EZBFDD), pH 7.5; 5 mM MgCl2, 1 mM DTT) was added into negative control wells), and the compound plate was centrifuged at 1000 rpm for 30 seconds. The plate was sealed and incubated in a Constant Temperature Incubator at 25° C. for 30 min. A substrate solution containing TK-Sub-biotin (Cisbio, Cat #61TKOBL) and ATP (Sigma, Cat #R0441) was prepared, the substrate solution was added into a 384-well plate, and the plate was centrifuged at 1000 rpm for 30 seconds. The plate was sealed and incubated in a Constant Temperature Incubator at 25° C. for 60 min.
(§2) TK antibody and XL665 were diluted, mixed and added into the assay plate, and the plate was centrifuged at 1000 rpm for 30 seconds. The plate was sealed and incubated in a Constant Temperature incubator Incubator at 25° C. for 60 min. The assay plate was placed on an Envision reader for reading. (HTRF 665/615 ratio: signal value at 665 nm/signal value at 615 nm) Inhibition=(rationegative control well−ratiocompound well)/(rationegative control well−ratioenzyme-free control well)×100% 1.3 Data Analysis and Curve Fitting
(§3) Data were fitted in XLFit excel add-in version 5.4.0.8 to obtain IC50 values.

TRKA(G667C) = target: T2, TRKA(G667C) (Homo sapiens, UniProt P04629, G667C); test: HTRF kinase inhibition assay, TRKA(G667C); type: biochemical
T2 construct: purchased signalchem
Procedure: as §1, §2, §3

ROS1 = target: T3, ROS1 (Homo sapiens, UniProt P08922); test: Kinase inhibition assay with fluorescein labeled peptide, ROS1; type: biochemical
T3 construct: purchased Carna 08-163
Procedure: (§4) Compounds were diluted to a certain concentration in DMSO with 4-fold gradients. The compound with a certain concentration, an enzyme solution and DMSO were added into a 384-well plate, and the plate was incubated at room temperature for 10 min. […] The plate was subjected to reading.

ALK = target: T4, ALK (Homo sapiens, UniProt Q9UM73); test: Kinase inhibition assay with fluorescein labeled peptide, ALK; type: biochemical
T4 construct: purchased Carna 08-105
Procedure: as §4

TRKA = target: T5, TRKA (Homo sapiens, UniProt P04629); test: HTRF kinase inhibition assay, TRKA; type: biochemical
T5 construct: purchased Bioduro
Procedure: as §1, §2, §3

TRKC = target: T6, TRKC (Homo sapiens, UniProt Q16288); test: HTRF kinase inhibition assay, TRKC; type: biochemical
T6 construct: purchased Bioduro
Procedure: as §1, §2, §3

TRKB = target: T7, TRKB (Homo sapiens, UniProt Q16620); test: HTRF kinase inhibition assay, TRKB; type: biochemical
T7 construct: purchased Bioduro
Procedure: as §1
(§5) TK antibody and XL665 were diluted, mixed and added into the assay plate, and the plate was centrifuged at 1000 rpm for 30 seconds. The plate was sealed and incubated in a Constant Temperature incubator Incubator at 25° C. for 60 min. The assay plate was placed on an Envision reader for reading.
as §3

Ba/F3 LMNA-NTRK1-G667C = target: T8, Ba/F3 LMNA-NTRK1-G667C (Homo sapiens, UniProt P04629, G667C, cells depend on it); test: In vitro cell proliferation inhibition (MTT); type: cell-based, murine; details: 72 h, read-out: IC50 Ba/F3 LMNA-NTRK1-G667C
T8 construct: fused on or other part: P02545 (Prelamin-A/C)
Procedure: (§6) Cells in the logarithmic growth phase were harvested and counted using a […]. The cell suspension with a certain density was pipetted uniformly and seeded into a 96-well plate with each well of 100 μL, and shaken to make the cells uniformly disperse into the wells. 100 μL of compound solution with certain concentration gradient was added into each well, and 3 duplicate wells were set for each concentration. The plate was cultured in a CO2 incubator at 37° C. for 72 h. 20 μL of MTT working solution (5 mg/mL) was added into each well, and the plate was placed at 37° C. for 4 h, and centrifuged at 1000 rpm for 5 min by a plate centrifuge. After 180 μL of culture medium was discarded, the plate was added with 150 μL of DMSO, and mixed well with a microplate shaker, the plate bottom was wiped, and optical density (OD) at 550 nm was detected with a microplate reader.

TRKA(G595R) = target: T9, TRKA(G595R) (Homo sapiens, UniProt P04629, G595R); test: HTRF kinase inhibition assay, TRKA(G595R); type: biochemical
T9 construct: purchased signalchem
Procedure: as §1, §2, §3

TRKC(G696A) = target: T10, TRKC(G696A) (Homo sapiens, UniProt Q16288, G696A); test: HTRF kinase inhibition assay, TRKC(G696A); type: biochemical
T10 construct: purchased Bioduro
Procedure: as §1, §5, §3

Ba/F3 ETV6-NTRK2 = target: T11, Ba/F3 ETV6-NTRK2 (Homo sapiens, UniProt Q16620); test: In vitro cell proliferation inhibition (MTT); type: cell-based, murine
T11 construct: fused on or other part: P41212 (Transcription factor ETV6)
Procedure: as §6

Ba/F3 ETV6-NTRK3-G696A = target: T12, Ba/F3 ETV6-NTRK3-G696A (Homo sapiens, UniProt Q16288, G696A, cells depend on it); test: In vitro cell proliferation inhibition (MTT); type: cell-based, murine; details: 72 h, read-out: IC50 Ba/F3 ETV6-NTRK3-G696A
T12 construct: fused on or other part: P41212 (Transcription factor ETV6)
Procedure: • Source of 6 kinds of cell lines for the test: KYinno Biotechnology (Beijing) Co., Ltd. • Cell type: murine B cells • Culture medium: RPMI-1640+10% FB S 2. Test Method
as §6

Ba/F3 ETV6-NTRK3-G623R = target: T13, Ba/F3 ETV6-NTRK3-G623R (Homo sapiens, UniProt Q16288, G623R, cells depend on it); test: In vitro cell proliferation inhibition (MTT); type: cell-based, murine; details: 72 h, read-out: IC50 Ba/F3 ETV6-NTRK3-G623R
T13 construct: fused on or other part: P41212 (Transcription factor ETV6)
Procedure: as §6

Ba/F3 LMNA-NTRK1 = target: T14, Ba/F3 LMNA-NTRK1 (Homo sapiens, UniProt P04629); test: In vitro cell proliferation inhibition (MTT); type: cell-based, murine; details: 72 h, read-out: IC50 Ba/F3 LMNA-NTRK1
T14 construct: fused on or other part: P02545 (Prelamin-A/C)
Procedure: as §6

Ba/F3 LMNA-NTRK1-G595R = target: T15, Ba/F3 LMNA-NTRK1-G595R (Homo sapiens, UniProt P04629, G595R, cells depend on it); test: In vitro cell proliferation inhibition (MTT); type: cell-based, murine; details: 72 h, read-out: IC50 Ba/F3 LMNA-NTRK1-G595R
T15 construct: fused on or other part: P02545 (Prelamin-A/C)
Procedure: as §6

[1] = 72 h, read-out: IC50 Ba/F3 ETV6-NTRK2

SMILES | IC50 (TRKC(G623R)) [nM] | IC50 (TRKA(G667C)) [nM] | IC50 (ROS1) [nM] | IC50 (ALK) [nM] | IC50 (TRKA) [nM] | IC50 (TRKC) [nM] | IC50 (TRKB) [nM] | GI50 (Ba/F3 LMNA-NTRK1-G667C) [nM] | IC50 (TRKA(G595R)) [nM] | IC50 (TRKC(G696A)) [nM] | GI50 (Ba/F3 ETV6-NTRK2; read-out: IC50 Ba/F3 ETV6-NTRK2, 72 h) [nM] | GI50 (Ba/F3 ETV6-NTRK3-G696A) [nM] | GI50 (Ba/F3 ETV6-NTRK3-G623R) [nM] | GI50 (Ba/F3 LMNA-NTRK1) [nM] | GI50 (Ba/F3 LMNA-NTRK1-G595R) [nM] | GI50 (Ba/F3 ETV6-NTRK2; [1]) [nM]
O=C(Nc1ccc(N2CC[C@H](O)C2)cc1)c1cnn2ccc(N3C[C@@H](F)C[C@@H]3c3cc(F)ccc3F)nc12 [Compound 21] | 0.749 | 0.632 | 0.33 | 30 | 0.405 | 0.901 | 1.55 | 0.584 | < 0.169 | 1.2 |  |  |  |  |  | 
O=C(Nc1ccccc1)c1cnn2ccc(N3C[C@@H](F)C[C@@H]3c3cccc(F)c3)nc12 [Compound D5] |  |  |  |  |  |  |  | 413 |  |  |  | 90.8 | 13.3 | 2.14 | 4.59 | 12.2
O=C(NC1CCN(C(=O)CO)CC1)c1cnn2ccc(N3C[C@@H](F)C[C@@H]3c3cccc(F)c3)nc12 [Compound D4] |  |  |  |  |  |  |  | ≥ 1000 |  |  |  | 141 | 17 | 9.52 | 65.9 | 14.9
O=C(Nc1ccc(NC2COC2)cc1)c1cnn2ccc(N3C[C@@H](F)C[C@@H]3c3cc(F)ccc3F)nc12 [Compound 19, 5-((2R,4S)-2-(2,5-difluorophenyl)-4-fluoropyrrolidin-1-yl)-N-(4-(oxetan-3-ylamino)phenyl)pyrazolo[1,5-a]pyrimidine-3-carboxamide] | 0.241 | 0.308 | 0.23 | 39 | 0.265 | 0.724 | 0.984 | 1.19 | < 0.169 | 0.936 |  | 0.321 | 0.426 | 0.416 | 0.208 | 0.866

Continued, values first:

IC50 (TRKC(G623R)) [nM] | IC50 (TRKA(G667C)) [nM] | IC50 (ROS1) [nM] | IC50 (ALK) [nM] | IC50 (TRKA) [nM] | IC50 (TRKC) [nM] | IC50 (TRKB) [nM] | GI50 (Ba/F3 LMNA-NTRK1-G667C) [nM] | IC50 (TRKA(G595R)) [nM] | IC50 (TRKC(G696A)) [nM] | GI50 (Ba/F3 ETV6-NTRK2; read-out: IC50 Ba/F3 ETV6-NTRK2, 72 h) [nM] | GI50 (Ba/F3 ETV6-NTRK3-G696A) [nM] | GI50 (Ba/F3 ETV6-NTRK3-G623R) [nM] | GI50 (Ba/F3 LMNA-NTRK1) [nM] | GI50 (Ba/F3 LMNA-NTRK1-G595R) [nM] | GI50 (Ba/F3 ETV6-NTRK2; [1]) [nM] | SMILES
 |  |  |  |  |  |  |  |  |  | 2.13 |  |  |  |  |  | CN1CCN(c2ccc(C(=O)Nc3n[nH]c4ccc(Cc5cc(F)cc(F)c5)cc34)c(NC3CCOCC3)c2)CC1 [RXDX-101, Entrectinib]
 |  |  |  |  |  |  | 316 |  |  |  | 542 | 207 | 8.68 | 522 | 17.4 | CN1CCN(Cc2ccc(C(=O)Nc3cnn4ccc(N5CCC[C@@H]5c5cc(F)ccc5F)nc34)cc2)CC1 [Compound D3]
 |  |  |  |  |  |  | 307 |  |  |  | 258 | 24.8 | 1.6 | 289 | 6.09 | CCN1CCN(c2ccc(C(=O)Nc3cnn4ccc(N5CCC[C@@H]5c5cc(F)ccc5F)nc34)cc2)CC1 [Compound D1]
